Source: patent US7674464B2, “Intracellular interleukin-1 receptor antagonists” (The University of Tennessee Research Foundation, priority 2004, dated 2010)
Entries after “also recorded” stand apart in the source; their conditions may differ.

Tests used:
[1] = tested on: icIL-1ra type 1 mRNA; experiment: antisense oligonucleotide against icIL-1ra type 1 in HF-icIL-1ra fibroblasts, MMP-1 mRNA by RT-PCR; format: cell-based, human; conditions: for MMP-1 mRNA levels: HF-icIL-1ra, vs PBS, empty liposome, scrambled oligonucleotide
Protocol: Phosphorothioate-derivatized antisense oligodeoxynucleotide complimentary to −6 to +12 of the natural icIL-1ra was synthesized and purified by HPLC Integrated DNA Technologies Inc. (Coralville, Iowa). As a control, antisense oligonucleotide with a scrambled sequence was prepared by a similar method. Fibroblasts over-expressing icIL-1ra type 1 were transfected with […] of antisense icIL-1ra type 1 oligonucleotide (24 h prior to stimulation with 100 pg/ml of IL-1 beta) using LipofectAMINE™ protocol. PBS and LipofectAMINE™ alone served as additional controls. The cells were harvested 12-18 h after stimulation for RNA extraction. Total RNA was reverse transcribed and MMP-1 mRNA was estimated by semi-quantitative RT-PCR.
Fibroblasts over-expressing icIL-1ra type 1 were transfected with different concentrations of antisense icIL-1ra type 1 oligonucleotide (24 h prior to stimulation with IL-1β) using LipofectAMINE. PBS alone, LipofectAMINE alone and treatment with oligonucleotide having scrambled sequence served as controls. The cells were harvested 12-18 h after stimulation for RNA extraction. Total RNA was reverse transcribed and MMP-1 mRNA was estimated by real time RT-PCR. The values indicate mean±SD of three independent experiments performed on same batch of transfected geneticin selected fibroblasts (LIPO: LipofectAMINE alone, ANTIS-LIP: Antisense icIL-1ra oligonucleotide+LipofectAMINE, SCRAM-LIP: Scrambled oligonucleotide+LipofectAMINE).
Cells transfected with intracellular isoform of IL-1 receptor antagonist type 1 (HF-icIL-1ra) were treated with varying concentrations of antisense oligonucleotide directed against the intracellular isoform of IL-1 receptor antagonist type 1 mRNA. Oligonucleotide with a scrambled sequence was used as control. Both oligonucleotides were mixed with LipofectAMINE™ reagent to enhance cellular uptake.
Using the approach described in Example 5, a phosphorothioate-derivatized antisense oligodeoxynucleotide complimentary to −6 to +12 (5′-CGTCTGTAAAGGCATGGG-3′ SEQ ID NO: 41) of the natural icIL-1ra type 1 was synthesized and RHPLC purified. […]

[2] = tested on: collagenase (MMP-1); experiment: IL-1β-induced collagenase (MMP-1) production by dermal fibroblasts, ELISA; format: cell-based, human; conditions: added 2 hours before IL-1β, 48 hrs, IL1β + PBS 1351, PBS + PBS 556
Protocol: Confluent fibroblast monolayer cultures were treated for 2 hr with IL-1ra peptides and cultured for 48 h with hrIL-1β. Collagenase protein was measured in culture supernatants by ELISA.
Furthermore, the effect of the IL-1ra peptides on the stimulation of MMP-1 and TIMP expression was examined. Briefly, fibroblasts were seeded in wells of Flacon 3008 multiwell plates (5×10^4 cells/500 μl Maintenance Medium). After 72 h culture, the medium was removed from each well and replaced with Maintenance Medium (450 μl) containing 5% FCS and 25 μl of IL-1ra peptides or hrsIL-1ra peptide being tested. Two hrs later 25 μl IL-1β (100 pg/ml) was added to appropriate wells. Plates were incubated for 48 h, at which time medium was collected from each well. Levels of TIMP and collagenase produced by fibroblasts during culture were measured by specific ELISA techniques as previously described (Postlethwaite et al., 1988).

[3] = tested on: collagen-induced arthritis (CIA); experiment: collagen-induced arthritis in DBA/1 lac mice, peptides by s.c. injection; format: in vivo; conditions: s.c. 227 μg/kg once daily, 5 consecutive days each week, day 22 to day 50, vs control peptide IL-1ra 37-30
Protocol: Groups of 12 mice were treated with subcutaneous injections of NLS-IL-1ra 1-35 (SEQ ID NO: 18), NLS-IL-1ra 30-37 ([…]) or IL-1ra 37-30 (SEQ ID NO: 43) as a control beginning day 22 to day 50. Mice were injected once each consecutive 5 days out of each week. Mean arthritic score is shoon. P values are determined by Students' t test.
The peptides disclosed in table 11 were delivered to the mice using 2 approaches. The first approach consisted of daily injections for 5 days each week via the subcutaneous (s.c.) route after the first appearance of clinical arthritis. The second approach consisted of continuous delivery via a subcutaneously implanted osmotic pump. For these studies, the following protocols were used: Since a smaller fragment of the 37 amino acid IL-1ra peptide containing amino acids LVAGY (SEQ ID NO: 42) inhibit IL-1β, TNFα, and bFGF induction of MMP-1 in human fibroblasts in vitro, effects of several peptides containing the LVAGY (SEQ ID NO: 42) sequence (Table 11) on CIA in mice was examined.
For s.c. injected route of delivery, 36 six-week old female DBA-1 lac mice were immunized with a stable emulsion of complete Freund's adjuvant (CFA) and native bovine II prepared as previously described (Seyer et al., 1989). Each mouse received 100 μg CII in 50 μl of the CFA CII emulsion intradermally at the base of the tail. Beginning day 14 post immunization, mice were examined for the presence of paw swelling as an indication of the onset of arthritis. On day 21 post immunization, the first paw swelling occurred in 2 mice and on day 22 post immunization, mice were divided into groups of 12. NLS-IL-1ra 1-35 (SEQ ID NO: 18), NSL-IL-1ra 30-37 (SEQ ID NO: 43), and reverse control peptide IL-1ra 37-30 (SEQ ID NO: 44) were separately administered s.c. to groups of 12 mice beginning on day 22 post immunization to day 50 post immunization. […] Results described herein are expressed as the mean arthritic score per mouse arrived at by adding up the total joint scores for mice in each group divided by the number of mice in the group.

[4] = tested on: collagenase; experiment: TNF alpha-stimulated fibroblast collagenase production; format: cell-based; conditions: TNF alpha + PBS 9391, PBS 645
Protocol: (§1) To potentially enhance translocation of the peptide, a nuclear localization sequence (NLS), namely, KKKMEKR from human IL-1β was added to the peptide with SEQ ID NO: 13 and the effect of the peptide with and without the NLS on collagenase production was assessed. In this case the cultures were stimulated with TNF-α or basic fibroblast growth factor (bFGF).

[5] = tested on: collagenase; experiment: bFGF-stimulated fibroblast collagenase production; format: cell-based; conditions: bFGF + PBS 5058, PBS 645
Protocol: as §1

[6] = tested on: collagen-induced arthritis (CIA); experiment: collagen-induced arthritis in DBA/1 mice, peptide by osmotic pump; format: in vivo
Protocol: The mice (total=20) were immunized by subcutaneous injection at the base of the tail with 100 μg/ml of bovine CII in CFA at day 0. At day 20, an Alzet Osmotic pump-2004 containing 1.67 mg NLS-IL-1ra (1-35) peptide (SEQ ID NO: 18) in 200 microliters D5W solvent (n=10) or the solvent alone (n=10) was surgically inserted subcutaneously in each of 10 mice. Beginning at 21 days after immunization, mice were monitored for the severity (FIG. 40A) and incidence (FIG. 40B) of arthritis.
For osmotic pump delivery of peptide, at day 20 following immunization, an Alzet Osmotic pump-2004 (Durect Corporation, Cupertino, Calif.), containing 1.67 mg NLS-ILra 1-35 peptide in 200 microliters D5W solvent was surgically inserted subcutaneously in each of 10 mice. According to the manufacturer's specifications, the pumps are designed to inject constantly for 4 weeks at the speed of […] 6 μl (50 μg peptide)/day. Each of the 10 control mice received a pump containing same amount D5W only. Animals were periodically monitored for incidence and severity of arthritis and scored as described above.

[7] = IL1β (100 pg/mL) + peptide 100 ng/mL
[8] = IL1β (100 pg/mL) + peptide 1 μg/mL
[9] = IL1β (100 pg/mL) + peptide 10 μg/mL

Substance	Collagenase [2, 7]	Collagenase [2, 8]	Collagenase [2, 9]	also measured
5′-CGTCTGTAAAGGCATGGG-3′ (DNA, all phosphorothioate, methylation of C not given here)				reduced expression of MMP-1 mRNA and protein in icIL-1ra transfected fibroblasts ([1]; FIG. 36): reversed; MMP-1 mRNA levels ([1]; 200 mM antisense, 1.0 ng/ml hrIL-1β): significantly higher; MMP-1 mRNA levels ([1]; 300 mM antisense with LipofectAMINE, IL-1β stimulated, p=0.001): significantly higher
FYLRNNQ (IL-1ra peptides) [SEQ ID NO: 22]	1514 ng/mL	1827 ng/mL	1881 ng/mL	
FYLRNNQLVAGYLQG (IL-1ra peptides) [SEQ ID NO: 21]	2142 ng/mL	2361 ng/mL	2581 ng/mL	
KKKMEKRLVAGYLQG (IL-1ra peptide) [NLS IL-1ra 30-37]				suppression of CIA, mean arthritic score ([3]; listed as NSL IL-1ra 30-37): suppressed CIA; suppression of CIA, mean arthritic score ([3]; listed as NSL-sIL-1ra 30-37): effective in reducing arthritis
KKKMEKRRPSGRKSSKMQAFRIWDVNQKTFYLRNNQLVAGYL (IL-1ra peptides) [NLS-IL-1ra]				Collagenase ([4]; TNF alpha (5 ng/ml) + peptide 100 pg/ml): 243 ng/mL; Collagenase ([4]; TNF alpha (5 ng/ml) + peptide 1 ng/ml): 238 ng/mL; Collagenase ([4]; TNF alpha (5 ng/ml) + peptide 10 ng/ml): 1199 ng/mL; Collagenase ([4]; TNF alpha (5 ng/ml) + peptide 100 ng/ml): 1254 ng/mL; Collagenase ([4]; TNF alpha (5 ng/ml) + peptide 1 μg/ml): 849 ng/mL; Collagenase ([5]; bFGF (5 ng/ml) + peptide 100 pg/ml): 2367 ng/mL; Collagenase ([5]; bFGF (5 ng/ml) + peptide 1 ng/ml): 2541 ng/mL; Collagenase ([5]; bFGF (5 ng/ml) + peptide 10 ng/ml): 3167 ng/mL; Collagenase ([5]; bFGF (5 ng/ml) + peptide 100 ng/ml): 3199 ng/mL; Collagenase ([5]; bFGF (5 ng/ml) + peptide 1 μg/ml): 5649 ng/mL; suppression of CIA, mean arthritic score [3]: suppressed CIA; incidence and severity of arthritis ([6]; osmotic pump from day 20, 50 μg peptide/day for 4 weeks, vs D5W solvent, listed as NLS-IL-1ra 1-35): reduced; also recorded: reduces incidence and severity of arthritis; delay of the onset of arthritis ([6]; osmotic pump, incidence and severity reached control levels after this time): 20 days
LVAGYLQG (IL-1ra peptides) [SEQ ID NO: 24]	857 ng/mL	841 ng/mL	749 ng/mL	
MQAFRIWDVNQKTFYLR (IL-1ra peptides) [SEQ ID NO: 20]	2644 ng/mL	2139 ng/mL	2036 ng/mL	
NNQLVAGY (IL-1ra peptides) [SEQ ID NO: 23]	541 ng/mL	619 ng/mL	1078 ng/mL	
RPSGRKSSKMQAFRI (IL-1ra peptides) [SEQ ID NO: 19]	1746 ng/mL	1152 ng/mL	1267 ng/mL	
